Reference: the NIST ThermoML archive (doi:10.1021/je401036f)

Assay: refractive index (Na D-line) (dimensionless); xn = mol fraction of the nth substance listed
Conditions: 101 kPa, Liquid, Standard Abbe refractometry

CC(O)CN (stereo not given) [1-amino-2-propanol] + CCCCO
refractive index
Conditions | 288.15 K | 293.15 K | 298.15 K | 303.15 K | 308.15 K | 313.15 K | 318.15 K | 323.15 K | 328.15 K | 333.15 K
x1 = 0.1 | 1.4058 | 1.4038 | 1.4018 | 1.3998 | 1.3977 | 1.3956 | 1.3934 | 1.3913 | 1.3892 | 1.387
x1 = 0.2005 | 1.4104 | 1.4084 | 1.4064 | 1.4043 | 1.4022 | 1.4001 | 1.398 | 1.3958 | 1.3937 | 1.3915
x1 = 0.3 | 1.4151 | 1.413 | 1.411 | 1.4089 | 1.4068 | 1.4047 | 1.4026 | 1.4005 | 1.3983 | 1.3961
x1 = 0.3999 | 1.4198 | 1.4178 | 1.4157 | 1.4136 | 1.4115 | 1.4094 | 1.4073 | 1.4051 | 1.403 | 1.4008
x1 = 0.5 | 1.4246 | 1.4226 | 1.4205 | 1.4184 | 1.4163 | 1.4142 | 1.4121 | 1.4099 | 1.4078 | 1.4056
x1 = 0.6001 | 1.4295 | 1.4275 | 1.4254 | 1.4234 | 1.4213 | 1.4191 | 1.417 | 1.4149 | 1.4128 | 1.4106
x1 = 0.7 | 1.4345 | 1.4324 | 1.4304 | 1.4283 | 1.4262 | 1.4242 | 1.4221 | 1.42 | 1.4178 | 1.4156
x1 = 0.8 | 1.4395 | 1.4375 | 1.4354 | 1.4334 | 1.4313 | 1.4292 | 1.4272 | 1.425 | 1.4229 | 1.4208
x1 = 0.8997 | 1.4446 | 1.4426 | 1.4406 | 1.4385 | 1.4365 | 1.4344 | 1.4324 | 1.4303 | 1.4282 | 1.426
x1 = 1 | 1.45 | 1.448 | 1.446 | 1.444 | 1.4419 | 1.4399 | 1.4378 | 1.4358 | 1.4337 | 1.4315

CC(O)CN (stereo not given) [1-amino-2-propanol] + CCC(C)O
refractive index
Conditions | 288.15 K | 293.15 K | 298.15 K | 303.15 K | 308.15 K | 313.15 K | 318.15 K | 323.15 K | 328.15 K | 333.15 K
x1 = 0.1003 | 1.4039 | 1.4018 | 1.3996 | 1.3974 | 1.3952 | 1.3929 | 1.3905 | 1.3881 | 1.3857 | 1.3832
x1 = 0.2005 | 1.4082 | 1.4062 | 1.404 | 1.4019 | 1.3996 | 1.3974 | 1.3951 | 1.3928 | 1.3905 | 1.3881
x1 = 0.3 | 1.4128 | 1.4107 | 1.4086 | 1.4065 | 1.4043 | 1.4021 | 1.3999 | 1.3977 | 1.3955 | 1.3932
x1 = 0.3999 | 1.4177 | 1.4156 | 1.4135 | 1.4114 | 1.4093 | 1.4071 | 1.4049 | 1.4028 | 1.4006 | 1.3983
x1 = 0.5 | 1.4228 | 1.4207 | 1.4186 | 1.4165 | 1.4144 | 1.4123 | 1.4102 | 1.408 | 1.4059 | 1.4036
x1 = 0.6001 | 1.428 | 1.4259 | 1.4239 | 1.4218 | 1.4197 | 1.4176 | 1.4154 | 1.4133 | 1.4112 | 1.409
x1 = 0.7 | 1.4332 | 1.4312 | 1.4292 | 1.4271 | 1.425 | 1.4229 | 1.4208 | 1.4187 | 1.4166 | 1.4144
x1 = 0.8 | 1.4386 | 1.4366 | 1.4345 | 1.4325 | 1.4304 | 1.4284 | 1.4263 | 1.4242 | 1.4221 | 1.42
x1 = 0.8999 | 1.4442 | 1.4422 | 1.4402 | 1.4382 | 1.4362 | 1.4342 | 1.4322 | 1.4302 | 1.4281 | 1.426
x1 = 1 | 1.45 | 1.448 | 1.446 | 1.444 | 1.4419 | 1.4399 | 1.4378 | 1.4358 | 1.4337 | 1.4315
